# Values joined by “and” are separate entries in the source; they are usually repeats but may differ in a detail not shown here. Identical values can stand only once. Like-named read-outs stand apart in the source and are kept apart here.
# Columns and labels:
# [1] = test system: conscious spontaneous hypertensive rats (SHR); experiment: Effect on blood pressure after i.v. administration to conscious SHR; format: in vivo; conditions: for ED25: Rattus norvegicus, iv, read-out: Blood Pressure ED25 (i.v. dose required to decrease pressure 25%)
# Procedure: (§1) The compounds of this invention are also effective in reducing blood pressure. The blood pressure lowering effect of the compounds of this invention was determined in conscious spontaneous hypertensive rats (SHR; 325-425 g). The rats were anesthetized with halothane (2% in nitrous oxide and oxygen) and were implanted with femoral arterial and venous catheters. The tips of arterial and venous catheters-were positioned in the abdominal aorta below the renal arteries and lower abdominal vena cava, respectively. The catheters were routed subcutaneously to an exit point at the base of the skull and then through a small leather harness fastened around the forequarters of each animal. The animals were allowed a 3- to 4-day recovery period after surgery. On the day before an experiment, each rat was conditioned to the experimental surroundings for 6 hours. On the day of the experiment, the harness on the back of each animal was connected to a spring tether through which arterial and venous extension tubing was routed. The other end of the tubing was connected to a water tight swivel. This system permitted direct recording of blood pressure in conscious free moving animals. Mean arterial blood pressure was measured via a Statham strain gauge transducer (P23DB, Statham Instruments, Oxnard, Calif.) and recorded on a multichannel oscillograph (Beckman Model R611, Beckman Instruments, Palo Alto, Calif.). A minimum 30-minute equilibration period was observed prior to the experimental protocol during which time the animals preened and blood pressure was quite labile. Afterward, the animals appeared to sleep and pressure was stable. Following a control blood pressure measurement, rats were dosed with the compound or vehicle i.v., and pressure was monitored at various time intervals thereafter.
# (§2) ^1 Standard protocol recorded the blood pressure and heart rate
# (§3) responses after 0.3, 1.0 and 3.0 mg/kg i.v. Dose response curves were
# (§4) plotted using the % change in pressure from pretreatment control values a
# (§5) 15 and 30 minutes after treatment.
# (§6) Corr = correlation coefficient for the linear relationship between the lo
# (§7) dose(s) and % change (y) in pressure. Values of 1.0 = perfect correlation
# (§8) Pos = Positive slope of dose response
# ED25 = i.v. dose required to decrease pressure 25%
# [2] = test system: conscious spontaneous hypertensive rats (SHR); experiment: Effect on heart rate after i.v. administration to conscious SHR; format: in vivo; conditions: for ED15: Rattus norvegicus, iv, read-out: Heart Rate ED15
# Procedure: as §1, §2, §3, §4, §5, §6, §7, §8
# HR Index = ED15 for Heart Rate divided by ED25 for Blood
# 5HT1a receptors = target: T1, 5HT1a receptors (Rattus norvegicus, UniProt P19327); experiment: Binding at 5HT1a receptors in vitro (inhibition of 3H-8-OH-DPAT binding to synaptosomal membranes from cerebral cortex); set-up: species or system Male Sprague-Dawley rats; conditions: 0.4 nM 3H-8-OH-DPAT, 37° C., 10 min, pH 7.4, several values in a cell are separate determinations
# T1 construct: synaptosomal membranes isolated from cerebral cortex; from tissue; host or cells: rat cerebral cortex, crude synaptosomal membranes (Male Sprague-Dawley rats from Harlan Industries)
# T1 sequence (P19327 1-422): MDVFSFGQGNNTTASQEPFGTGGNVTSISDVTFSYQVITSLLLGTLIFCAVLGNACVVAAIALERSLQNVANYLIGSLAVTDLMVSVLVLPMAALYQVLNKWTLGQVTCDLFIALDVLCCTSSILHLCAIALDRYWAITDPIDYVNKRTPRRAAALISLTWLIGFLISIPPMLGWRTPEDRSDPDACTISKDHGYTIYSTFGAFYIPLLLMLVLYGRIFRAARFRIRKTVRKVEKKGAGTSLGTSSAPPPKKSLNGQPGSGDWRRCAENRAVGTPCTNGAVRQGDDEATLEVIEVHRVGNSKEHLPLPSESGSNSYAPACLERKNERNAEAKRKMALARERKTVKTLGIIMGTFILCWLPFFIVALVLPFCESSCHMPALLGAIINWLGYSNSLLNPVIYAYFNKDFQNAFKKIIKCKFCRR
# Procedure: This general procedure is set forth in Wong et al., J. Neural Transm. 71:207-218 (1988).
# Male Sprague-Dawley rats (110-150 g) from Harlan Industries (Cumberland, Ind.) were fed a Purina Chow ad libitum for at least 3 days before being used in the studies. Rats were killed by decapitation. The brains were rapidly removed, and the cerebral cortices were dissected out at 4° C.
# Brain tissues were homogenized in 0.32 M sucrose. After centrifugation at 1000×g for 10 min and then at 17000×g for 20 min, a crude synaptosomal fraction was sedimented. The pellet was suspended in 100 vol of 50 mM Tris-HCl, pH 7.4, incubated at 37° C. for 10 min, and centrifuged at 50000×g for 10 min. The process was repeated and the final pellet was suspended in ice-chilled 50 mM Tris-HCl, pH 7.4. By the radio-ligand binding method, sites specifically labeled by tritiated 8-hydroxy-2-dipropylamino-1,2,3,4-tetrahydronaphthalene ([…]) have been identified as 5HT-1a receptors.
# Binding of (^3 H-8-OH-DPAT) was performed according to the previously described method [Wong et al., J. Neural Transm. 64:251-269 (1985)]. Briefly, synaptosomal membranes isolated from cerebral cortex were incubated at 37° C. for 10 min. in 2 ml of 50 mM Tris-HCl, pH 7.4; 10 μM pargyline; 0.6 mM ascorbic acid; and 0.4 nM […]. Binding was terminated by filtering samples under reduced pressure through glass fiber (GFB) filters. The filters were washed twice with 5 ml of ice cold buffer and placed in scintillation vials with 10 ml of PCS (Amersham/Searle) scintillation fluid. Radioactivity was measured with a liquid scintillation spectrometer. Unlabeled 8-OH-DPAT at 10 μM was also included in separate samples to establish non-specific binding. Specific binding of ^3 H-8-OH-DPAT is defined as the difference of radioactivity bound in the absence and in the presence of 10 μM unlabeled 8-OH-DPAT.
# [3] = 0.25 h, 15 min. after treatment, i.v., conscious SHR
# [4] = 0.5 h, 30 min. after treatment, i.v., conscious SHR
# [5] = 15 min. after treatment, i.v., conscious SHR
# [6] = 30 min. after treatment, i.v., conscious SHR
SMILES,"ED25 [1, 3]","ED25 [1, 4]","HR Index (ED15 for Heart Rate divided by ED25 for Blood Pressure) [2, 5]","HR Index (ED15 for Heart Rate divided by ED25 for Blood Pressure) [2, 6]","ED15 [2, 3]","ED15 [2, 4]",IC50 (5HT1a receptors; IC50 5HT1a),IC50 (5HT1a receptors; read-out: IC50 5HT1a),also measured
"CCCN(CCC)C1CCc2cccc(Cl)c2C1 (stereo not shown) [Example 1, 2-Di-n-propylamino-8-chloro-1,2,3,4-tetrahydronaphthalene]",3.1 mg/kg,13 mg/kg,8.96,0.22,27.8 mg/kg,2.8 mg/kg,0.018 µM,,
"CCN(CC)C1CCc2cccc(Cl)c2C1 (stereo not shown) [Example 2, 2-Diethylamino-8-chloro-1,2,3,4-tetrahydronaphthalene]",,,,1.00,,,0.048 µM and 0.0382 µM,,ED25 ([1]; 0.5 h): 1.5 mg/kg; ED15 ([2]; 0.5 h): 1.5 mg/kg
"C=CCN(CC=C)C1CCc2cccc(Cl)c2C1 (stereo not shown) [Example 3, 2-Diallylamino-8-chloro-1,2,3,4-tetrahydronaphthalene]",,,,,,,0.0452 µM,,
"CCCCN(CCCC)C1CCc2cccc(Cl)c2C1 (stereo not shown) [Example 4, 2-Di-n-butylamino-8-chloro-1,2,3,4-tetrahydronaphthalene]",,,,,,,,0.78 µM and 0.318 µM,
"CCCN(CCC)C1CCc2cccc(Br)c2C1 (stereo not shown) [Example 5, 2-Di-n-propylamino-8-bromo-1,2,3,4-tetrahydronaphthalene]",6.1 mg/kg,5.9 mg/kg,0.06,0.27,1.6 mg/kg,1.6 mg/kg,0.023 µM and 0.0151 µM,,
"CCCN(CCC)C1CCc2cccc(F)c2C1 (stereo not shown) [Example 6, 2-Di-n-propylamino-8-fluoro-1,2,3,4-tetrahydronaphthalene]",4.5 mg/kg,,,,,8 mg/kg,,0.28 µM,"Heart Rate ED15 [2, 5]: Pos"
"CCCN(CCC)C1CCc2cccc(C(=O)OC)c2C1 (stereo not shown) [Example 7, 2-Di-n-propylamino-8-methoxycarbonyl-1,2,3,4-tetrahydronaphthalene]",,5.3 mg/kg,,0.21,1.4 mg/kg,1.1 mg/kg,0.0014 µM and 0.0018 µM and 0.0024 µM,,
"CCCN(CCC)C1CCc2cccc(C#N)c2C1 (stereo not shown) [Example 8, 2-Di-n-propylamino-8-cyano-1,2,3,4-tetrahydronaphthalene]",5.1 mg/kg,4.1 mg/kg,0.71,0.68,3.6 mg/kg,2.8 mg/kg,0.055 µM,,
"CCCNC1CCc2cccc(Cl)c2C1 (stereo not shown) [Example 10, 2-n-Propylamino-8-chloro-1,2,3,4-tetrahydronaphthalene]",2.5 mg/kg,4.5 mg/kg,0.48,0.47,1.2 mg/kg,2.1 mg/kg,,0.2 µM,
"CN(C)C1CCc2cccc(Cl)c2C1 (stereo not shown) [Example 11, 2-Dimethylamino-8-chloro-1,2,3,4-tetrahydronaphthalene]",1.1 mg/kg,1.8 mg/kg,1.0,3.00,1.1 mg/kg,5.4 mg/kg,,0.58 µM and 0.272 µM,
"CNC1CCc2cccc(Cl)c2C1 (stereo not shown) [Example 12, 2-Methylamino-8-chloro-1,2,3,4-tetrahydronaphthalene]",1.4 mg/kg,1.8 mg/kg,,0.83,,1.5 mg/kg,,,
"CCN(C)C1CCc2cccc(Cl)c2C1 (stereo not shown) [Example 13, 2-Methylethylamino-8-chloro-1,2,3,4-tetrahydronaphthalene]",0.7 mg/kg,0.9 mg/kg,0.69,0.70,0.48 mg/kg,0.63 mg/kg,,0.12 µM,
"CC(C)N(C)C1CCc2cccc(Cl)c2C1 (stereo not shown) [Example 14, 2-Methylisopropylamino-8-chloro-1,2,3,4-tetrahydronaphthalene]",2.9 mg/kg,,1.31,,3.8 mg/kg,,,,
"CCCN(C)C1CCc2cccc(Cl)c2C1 (stereo not shown) [Example 15, 2-Methylpropylamino-8-chloro-1,2,3,4-tetrahydronaphthalene]",1.6 mg/kg,3.8 mg/kg,,,,,,0.5 µM,
"CCCN(CCC)C1CCc2cccc(C(N)=O)c2C1 (stereo not shown) [Example 16, 2-Di-n-propylamino-8-carboxamido-1,2,3,4-tetrahydronaphthalene]",4.2 mg/kg,5.7 mg/kg,0.35,0.51,1.5 mg/kg,2.9 mg/kg,0.0071 µM and 0.009 µM and 0.0061 µM and 0.0058 µM,,
"CCCN(CCC)C1CCc2cccc(C=O)c2C1 (stereo not shown) [Example 17, 2-Di-n-propylamino-8-formyl-1,2,3,4-tetrahydronaphthalene]",,,,,,,0.0172 µM,,
"CCCNC1CCc2cccc(NC(C)=O)c2C1 (stereo not shown) [Example 18, 2-Propylamino-8-acetamido-1,2,3,4-tetrahydronaphthalene]",,,,,3.8 mg/kg,1.2 mg/kg,,,
"CN(C)C1CCc2cccc(C(N)=O)c2C1 (stereo not shown) [Example 19, 2-Dimethylamino-8-carboxamido-1,2,3,4-tetrahydronaphthalene]",10.9 mg/kg,1030 mg/kg,,,,,,,"Heart Rate ED15 [2, 5]: Pos; Heart Rate ED15 [2, 6]: Pos"
"CCN(C)C1CCc2cccc(C(N)=O)c2C1 (stereo not shown) [Example 20, 2-Methylethylamino-8-carboxamido-1,2,3,4-tetrahydronaphthalene]",,,,,,,,0.4 µM,
"CCCN(CCC)C1CCc2cccc(CO)c2C1 (stereo not shown) [Example 21, 2-Di-n-propylamino-8-hydroxymethyl-1,2,3,4-tetrahydronaphthalene]",4.2 mg/kg,,,,,,0.0555 µM,,"convulsion ([1]; 3.0 mg/kg i.v., conscious SHR): caused convulsion"

# Reference: patent publication US5389687A, “Ring-substituted 2-amino-1,2,3,4-tetra-hydronaphthalenes” (Eli Lilly and Company, priority 1991, dated 1995)
